Results taken from US4708966A, “Novel anti-inflammatory agents, pharmaceutical compositions and methods for reducing inflammation” (The Procter & Gamble Company, priority 1986, dated 1987).

What was measured:
[1] = gastric damage / gastrointestinal irritation; assay type: in vivo; details: levels significantly greater than the therapeutic dose, test animals
oral analgesic activity = assay type: in vivo; details: "peripheral" type, compared to aspirin
Experimental: (§1) In order to determine and assess pharmacological activity, testing of these compounds in animals is carried out using various assays known to those skilled in the art. […] Examples of such known tests include the carrageenan rat edema test, the oxazolone-induced inflamed mouse ear test, and the arachidonic acid-induced inflamed mouse ear test. Anti-pyretic acitivity may be tested using art-known rat models, and analgesic acitivty may be tested in art-known models such as the acetylcholine model in mice, the Randall-Selitto model in rats, and the hot-plate test in mice. Another useful art-known test is the adjuvant arthritis test which is a useful model for assessing anti-inflammatory activity and anti-resorptive activity in a chronic, rather than acute, model.

[2] = tested on: carrageenan rat paw edema; experiment: Carrageenan Rat Paw Edema Test; assay type: in vivo, Male Sprague-Dawley rats
Experimental: Carrageenan Rat Paw Edema Test
Male Sprague-Dawley rats (Charles River Laboratories) are weighed and food fasted overnight. The animals are then divided into four to six groups of six animals each according to body weights (average about 145 g) so that each group has about the same average body weight (within 10 g).
The following morning animals are dosed with the test compound and then placed in individual cages. For oral dosing, the drug is suspended in 0.5% methyl cellulose with 2% Tween 80, and delivered via stomach tube in a 5 ml volume.
Paw volumes (0 time) are determined on both hind paws with a mercury displacement device equipped with a transducer and digitizer. One hour after dosing the test compound, the animals are placed in a plastic restrainer and 50 ul of a 1% (w/w) carrageenan solution in 0.9% saline is injected into the ventral surface of the left rear paw. Four hours after the carrageenan injection, the paw volumes are again determined.
The results are expressed as percent inhibition of the mean paw volume of the test group relative to the control group. Statistical differences are determined by one way analysis of variance. ID35 values are determined by regression analysis.

lipoxygenase ("LOX") = experiment: inhibition of lipoxygenase in arachidonic acid metabolism; assay type: biochemical
[3] = tested on: adjuvant arthritis (modified Freund's adjuvant); experiment: Adjuvant Arthritis - Immunomodulatory; assay type: in vivo, Male Sprague-Dawley rats; details: 15 mg/kg, 2 x/day, day -1 through day 7
Experimental: Adjuvant Arthritis Methodology
Male Sprague-Dawley rats weighing 167-170 gm are allowed to acclimate to the laboratory for at least 3 days. Ten rats are then assigned to the healthy control group and the remaining rats are assigned to the arthritic group. On day 0, the rats in the arthritic group are injected subcutaneously in the middle of their tail with a modified Freund's adjuvant (MFA) at a dosage of 0.05 ml/100 gm body weight. The MFA is made by grinding Mycobacterium butyricum (Mb) and then mixing with mineral oil at a concentration of 10 mg Mb/ml of mineral oil. This is mixed in an Omni mixer for 45 minutes.
Paw volumes and body weights are determined on days -1, 6, 13, 19, 26, and 29. On day 19, paw volume changes from day -1 are determined for the arthritic group. The rats with paw volume changes≥0.50 ml but ≤2.50 ml are randomized by paw volume changes into the treatment groups on day 20. On days 20 through 28, the rats are orally dosed twice a day (once a day on weekends). On day 29, two representative rats from each treatment group are photographed, paw volumes and body weights are determined, and then the rats are sacrificed with CO2 and x-rays are taken.
The radiographs are used to grade bone resorption. Bone resorption is graded in 20 areas of the fore and hind paws. The areas for grading on the hind paw are: distal femur end, proximal tibia and tibula, distal end of the tibia and the small bone under the tibia, calcaneous, tarsus, and metatarsus. The areas on the fore paws are: radius, ulna, carpus, and metacarpus. Each area is given a grade of 0 (no resorption) or 1 (resorption) for possible grade of 20 of each animal.
The same procedures as for the therapeutic, except the rats are randomly assigned to the treatment groups including the healthy control group by body weights on day -2. Paw volumes and body weights are determined on days -1, 6, 13, 20, and 27. The rats are treated from day -1 through day 7. The rats are sacrificed on day 28 and x-rayed. The radiographs are graded as above using a severity scale from 0 (no resorption) to 3 (severe resorption).

[4] = oral anti-pyretic activity; assay type: in vivo
Experimental: as §1

C#CCCCC(=O)c1cc(C(C)(C)C)c(O)c(C(C)(C)C)c1 [Compound 11, 4-(5'-hexynoyl)-2,6-di-t-butylphenol]
gastric damage after oral dosing [1]: very low or no gastric damage
oral analgesic activity (oral analgesic activity): superior to aspirin
ED35 ([2]; 4 h, oral, by regression analysis, read-out: ID35): 4.8 mg/kg
inhibition in vivo at 100 mg/kg ([2]; po, 100 mg/kg P.O., paw volume 4 h after carrageenan, vs control group, read-out: Percent Inhibiton at 100 mg/kg dose P.O): 67.6%
inhibition of lipoxygenase (LOX) (lipoxygenase ("LOX")): dual inhibitor
Body Weights % Increase [3]: 30%
Paw Volume % Decrease [3]: 48%
Bone Resorption % Inhibition ([3]; severity scale 0-3): 57%
oral anti-pyretic activity [4]: oral anti-pyretic activity
